The results in this text go back to US20240092799A1, “MNK INHIBITORS” (Hepagene Therapeutics (HK) Limited, priority 2020, published 2024).

The target in one test is MNK1 (Homo sapiens (Human), UniProt Q9BUB5). The test is described as follows: MNK Biochemical Enzymatic Assay (ADP-Glo), MNK1 binding assay. The method, then: MNK Biochemical Enzymatic Assay. This protocol establishes the binding assays for MNK1 and MNK2 using ADP-Glo assay. MNK phosphorylates the substrate and converts ATP to ADP, which was detected by Envision and used to reflect the reminding activity of MNK. Reagents and equipment used in the assay are listed below, followed by the protocol.
Chain of MNK1 (Q9BUB5 other isoform, or with tags, fused parts or gaps isoform Q9BUB5-2): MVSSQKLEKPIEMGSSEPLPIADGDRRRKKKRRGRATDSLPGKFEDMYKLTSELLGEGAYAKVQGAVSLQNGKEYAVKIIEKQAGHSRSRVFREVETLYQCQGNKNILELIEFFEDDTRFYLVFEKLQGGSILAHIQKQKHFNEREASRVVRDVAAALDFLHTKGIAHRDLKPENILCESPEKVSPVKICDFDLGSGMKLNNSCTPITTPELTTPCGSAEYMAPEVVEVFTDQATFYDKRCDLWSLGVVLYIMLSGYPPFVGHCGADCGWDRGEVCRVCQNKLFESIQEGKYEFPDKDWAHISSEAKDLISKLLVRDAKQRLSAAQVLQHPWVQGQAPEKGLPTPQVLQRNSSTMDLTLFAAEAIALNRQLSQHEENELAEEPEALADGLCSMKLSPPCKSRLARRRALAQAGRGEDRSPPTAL
• a) Add 50 μL compound to 384-well dilution plate • b) Dilute compound 1:3 in succession in DMSO for each column for 10+0 pts (refer to dilution plate map) • c) Transfer 0.1 μL diluted compound solution in each row to 384 assay plate using Echo, each column containing 2 replicates (refer to assay plate map) • d) Add 5 μL enzyme working solution to 384-well assay plate, centrifuge 1000 RPM for 1 min • e) Incubate at 25° C. for 15 min • f) Add 5 μL substrate working solution to initiate reaction • g) Incubate at 25° C. for 60 min • h) Add 10 μL ADP Glo reagent, centrifuge 1000 RPM for 1 min • i) Incubate at 25° C. for 60 min • j) Add 20 μL kinase detection reagent, centrifuge 1000 RPM for 1 min • k) Incubate at 25° C. for 60 min • l) Read on Envision for US LUM as RLU • m) Data analysis: IC50s were determined based on a non-linear regression analysis of data collected.

In another test the target is MNK2 (Homo sapiens (Human), UniProt Q9HBH9). The test can be described thus: MNK Biochemical Enzymatic Assay (ADP-Glo), MNK2 binding assay. An outline of the steps: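 Human MNK1 or MNK2 was preincubated with a 10-point, 1:3 serial dilution of compound for 15 min at 25 °C. Substrate was then added and the reaction ran 60 min at 25 °C. ADP formed was read by ADP-Glo luminescence, and IC50 came from non-linear regression.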
Chain of MNK2 (Q9HBH9 whole entry): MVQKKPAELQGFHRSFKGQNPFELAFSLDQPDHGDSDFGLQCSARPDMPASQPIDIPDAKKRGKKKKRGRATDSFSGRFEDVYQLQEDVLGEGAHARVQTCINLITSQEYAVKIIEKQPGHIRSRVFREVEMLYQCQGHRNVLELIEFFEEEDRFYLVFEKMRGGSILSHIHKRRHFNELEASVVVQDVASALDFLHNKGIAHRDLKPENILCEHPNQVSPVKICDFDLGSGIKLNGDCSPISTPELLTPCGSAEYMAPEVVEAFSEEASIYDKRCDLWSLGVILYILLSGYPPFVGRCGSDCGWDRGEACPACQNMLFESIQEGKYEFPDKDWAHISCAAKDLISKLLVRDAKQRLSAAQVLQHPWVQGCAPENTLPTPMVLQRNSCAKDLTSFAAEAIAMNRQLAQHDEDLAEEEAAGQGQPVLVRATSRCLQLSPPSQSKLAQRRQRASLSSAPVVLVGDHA
A general note: ADP-Glo turns the ADP formed in a reaction into a luminescent signal.

The subject of a further test is TMD-8 cell p-IF4E. The test can be described thus: p-eIF4E Signaling Cellular Assay (CisBio HTRF) in TMD-8 cells. It is filed as cell-based. Conditions: Homo sapiens, TMD8, 40 min, 40 min treatment. The method in brief:
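TMD-8 cells (20 k/well, exponential phase, RPMI 1640 + 10% FBS) treated with compound for 40 min at 37 °C, then lysed for 30 min and incubated overnight at RT with HTRF antibodies. 665/620 nm ratio converted to % inhibition vs controls; IC50 from variable-slope nonlinear fit.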
On the technique in general: TR-FRET usually uses a lanthanide donor and a delayed reading to cut background.

By IC50 is commonly meant the concentration needed to halve the response being measured. Take `Nc1cc(Nc2c3c(c4n(c2=O)C2(CCCCC2)NC4=O)CCC3)ncn1` [Compound I, 6′-((6-Aminopyrimidin-4-yl)amino)-8′,9′-dihydrospiro[cyclohexane-1,3′-cyclopenta[c]imidazo[1,5-a]pyridine]-1′,5′(2′H,7′H)-dione]: the IC50 at MNK1 and at MNK2 was greater than 1000 nM throughout.
With `Cc1cc(Nc2cc(N)ncn2)c(=O)n2c1C(=O)N[C@]21C[C@H]2CC[C@@H]1C2` [Compound IIa, (1R,2R,4S)-6′-((6-Aminopyrimidin-4-yl)amino)-8′-methyl-2′H-spiro[bicyclo[2.2.1]heptane-2,3′-imidazo[1,5-a]pyridine]-1′,5′-dione], the half-inhibitory concentration (IC50) on MNK1 and at MNK2 was 0.1 to 10 nM each time.
Take `Cc1cc(Nc2cc(N)ncn2)c(=O)n2c1C(=O)N[C@@]21C[C@H]2CC[C@@H]1C2` [Compound IIb, (1R,2S,4S)-6′-((6-aminopyrimidin-4-yl)amino)-8′-methyl-2′H-spiro[bicyclo[2.2.1]heptane-2,3′-imidazo[1,5-a]pyridine]-1′,5′-dione]: the IC50 at MNK1 and at MNK2 was 0.1 to 10 nM in each case.
As to `Nc1cc(Nc2c(=O)n3c(c4ccccc24)C(=O)NC32CCCCC2)ncn1` [Compound III, 6′-((6-Aminopyrimidin-4-yl)amino)-2′H-spiro[cyclohexane-1,3′-imidazo[5,1-a]isoquinoline]-1′,5′-dione], the half-inhibitory concentration (IC50) at MNK1 and on MNK2 was greater than 1000 nM throughout.
`Cc1cc(Nc2cc(Nc3ccn(C(C)C)n3)ncn2)[n+]([O-])c2c1C(=O)NC21CCCCC1` [Compound XXIX-AAQ, 2′-((6-((1-isopropyl-1H-pyrazol-3-yl)amino)pyrimidin-4-yl)amino)-4′-methyl-5′-oxo-5′,6′-dihydrospiro[cyclohexane-1,7′-pyrrolo[3,4-b]pyridine] 1′-oxide]: the IC50 on MNK2 and with TMD-8 cell p-IF4E was 0.1 to 10 nM each time.
